# Test results from patent publication US20230167073A1 (Teijin Pharma Limited, priority 2020, published 2023).
# Target: T1, Human TRPC6 (Homo sapiens, UniProt Q9Y210)
# T1 construct: expressed in transfected cells
# T1 sequence (Q9Y210 1-931): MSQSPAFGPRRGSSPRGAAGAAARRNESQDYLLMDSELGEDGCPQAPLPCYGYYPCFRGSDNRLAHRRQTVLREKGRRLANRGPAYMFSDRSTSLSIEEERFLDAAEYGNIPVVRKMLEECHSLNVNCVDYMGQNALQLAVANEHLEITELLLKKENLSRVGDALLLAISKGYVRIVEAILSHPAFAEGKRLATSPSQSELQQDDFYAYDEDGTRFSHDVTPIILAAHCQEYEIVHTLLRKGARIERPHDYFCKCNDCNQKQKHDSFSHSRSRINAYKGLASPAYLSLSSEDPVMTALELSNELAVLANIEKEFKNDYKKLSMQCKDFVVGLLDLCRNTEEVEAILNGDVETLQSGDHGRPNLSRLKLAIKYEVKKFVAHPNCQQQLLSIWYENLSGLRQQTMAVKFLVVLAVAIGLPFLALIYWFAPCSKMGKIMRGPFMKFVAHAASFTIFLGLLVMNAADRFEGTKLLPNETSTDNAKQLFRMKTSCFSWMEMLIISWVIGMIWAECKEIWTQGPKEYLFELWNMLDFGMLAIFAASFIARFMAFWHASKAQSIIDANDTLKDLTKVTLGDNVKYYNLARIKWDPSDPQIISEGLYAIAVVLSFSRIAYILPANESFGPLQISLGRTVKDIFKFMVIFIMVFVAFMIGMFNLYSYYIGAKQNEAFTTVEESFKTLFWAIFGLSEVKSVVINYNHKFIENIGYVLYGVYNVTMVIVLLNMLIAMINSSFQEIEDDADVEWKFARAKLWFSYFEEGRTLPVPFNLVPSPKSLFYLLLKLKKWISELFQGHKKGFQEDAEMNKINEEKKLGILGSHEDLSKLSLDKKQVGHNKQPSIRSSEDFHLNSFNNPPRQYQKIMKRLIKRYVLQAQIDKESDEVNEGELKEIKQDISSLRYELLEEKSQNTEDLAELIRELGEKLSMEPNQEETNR
# Test: Evaluation of TRPC6 channel inhibitory activity (2), HEK293 cells with stably introduced human TRPC6, OAG stimulation, FLIPR tetra (Compound Nos. 1293 to 1405)
# Type: cell-based
# Conditions: HEK293 cells with stably introduced human TRPC6, OAG 50 μM/0.5% DMSO, read-out: Inhibitory activity (pIC50 class) (converted)
# Procedure, shortened: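 Calcium-dye-loaded HEK293 cells stably expressing human TRPC6 were pretreated with compound for 25 min, then stimulated with 50 μM OAG (0.5% DMSO) in Ca ringer buffer pH 7.2 with 2 mM CaCl2. Background-subtracted FLIPR calcium peaks were normalized to OAG (100%) and buffer (0%); pIC50 came from four-parameter logistic fit, binned as +/++/+++.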
row,IC50 [nM],SMILES
1,10 to 1000,"Cn1nc([C@H]2CCOC2)cc1Oc1cc(Cl)ccc1-c1ncc([C@@H](F)CN)cn1 [compound 1352, (2R)-2-[2-[4-chloro-2-[2-methyl-5-[(3R)-oxolan-3-yl]pyrazol-3-yl]oxyphenyl]pyrimidin-5-yl]-2-fluoroethanamine]"
2,10 to 1000,"Cn1nc(-c2ccccn2)cc1Oc1cc(Cl)cnc1-c1ccc([C@@H](F)CN)cn1 [compound 1353, (2R)-2-[6-[5-chloro-3-(2-methyl-5-pyridin-2-ylpyrazol-3-yl)oxypyridin-2-yl]pyridin-3-yl]-2-fluoroethanamme]"
3,< 10,"Cn1nc(-c2ccccn2)cc1Oc1cc(Cl)cnc1-c1ccc([C@H](F)CN)cn1 [compound 1354, (2S)-2-[6-[5-chloro-3-(2-methyl-5-pyridin-2-ylpyrazol-3-yl)oxypyridin-2-yl]pyridin-3-yl]-2-fluoroethanamine]"
4,10 to 1000,"Cn1nc(C2CC2)cc1Oc1cc(Cl)ccc1-c1ncc(CN)cn1 [compound 1355, [2-[4-chloro-2-(5-cyclopropyl-2-methylpyrazol-3-yl)oxyphenyl]pyrimidin-5-yl]methanamine]"
5,10 to 1000,"Cn1nc([C@@H]2CCOC2)cc1Oc1cc(Cl)ccc1-c1ncc(CN)cn1 [compound 1356, [2-[4-chloro-2-[2-methyl-5-[(3S)-oxolan-3-yl]pyrazol-3-yl]oxyphenyl]pyrimidin-5-yl]methanamine]"
6,< 10,"Cn1nc(-c2ccccn2)cc1Oc1cc(Cl)ccc1-c1ncc([C@@H](O)CN)cn1 [compound 1357, (1R)-2-amino-1-[2-[4-chloro-2-(2-methyl-5-pyridin-2-ylpyrazol-3-yl)oxyphenyl]pyrimidin-5-yl]ethanol]"
7,10 to 1000,"Cn1nc(-c2ccccn2)cc1Oc1cc(Cl)ccc1-c1ncc([C@H](O)CN)cn1 [compound 1358, (1S)-2-amino-1-[2-[4-chloro-2-(2-methyl-5-pyridin-2-ylpyrazol-3-yl)oxyphenyl]pyrimidin-5-yl]ethanol]"
8,10 to 1000,"Cn1nc(C2CCOCC2)cc1Oc1cc(Cl)ccc1-c1ncc([C@H](F)CN)cn1 [compound 1359, (2S)-2-[2-[4-chloro-2-[2-methyl-5-(oxan-4-yl)pyrazol-3-yl]oxyphenyl]pyrimidin-5-yl]-2-fluoroethanamine]"
9,< 10,"Cn1nc(C2CCOCC2)cc1Oc1cc(Cl)ccc1-c1ncc([C@@H](F)CN)cn1 [compound 1360, (2R)-2-[2-[4-chloro-2-[2-methyl-5-(oxan-4-yl)pyrazol-3-yl]oxyphenyl]pyrimidin-5-yl]-2-fluoroethanamine]"
10,< 10,"Cn1nc(C2CCOCC2)cc1Oc1cc(Cl)ccc1-c1ccc(CN)cn1 [compound 1361, [6-[4-chloro-2-[2-methyl-5-(oxan-4-yl)pyrazol-3-yl]oxyphenyl]pyridin-3-yl]methanamine]"
11,10 to 1000,"Cn1nc(C2CCOCC2)cc1Oc1cc(Cl)ccc1-c1ncc(CN)cn1 [compound 1362, [2-[4-chloro-2-[2-methyl-5-(oxan-4-yl)pyrazol-3-yl]oxyphenyl]pyrimidin-5-yl]methanamine]"
12,> 1000,"Cn1nc(-c2ccccn2)cc1Oc1cc(Cl)ccc1-c1ccc([C@@H](N)CO)cn1 [compound 1363, (2R)-2-amino-2-[6-[4-chloro-2-(2-methyl-5-pyridin-2-ylpyrazol-3-yl)oxyphenyl]pyridin-3-yl]ethanol]"
13,> 1000,"Cn1nc(-c2ccccc2)nc1Oc1cc(Cl)ccc1-c1ncc(CN)cn1 [compound 1364, [2-[4-chloro-2-[(2-methyl-5-phenyl 1,2,4-triazol-3-yl)oxy]phenyl]pyrimidin-5-yl]methanamine]"
14,> 1000,"Cn1nc(-c2ccccc2)nc1Oc1cc(Cl)ccc1-c1ncc(CCN)cn1 [compound 1365, 2-[2-[4-chloro-2-[(2-methyl-5-phenyl-1,2,4-triazol-3-yl)oxy]phenyl]pyrimidin-5-yl]ethanamine]"
15,< 10,"Cn1nc(C2CC2)cc1Oc1cc(C#N)ccc1-c1ncc([C@@H](F)CN)cn1 [compound 1366, 4-[5-[(1R)-2-amino-1-fluoroethyl]pyrimidin-2-yl]-3-(5-cyclopropyl-2-methylpyrazol-3-yl)oxybenzonitrile]"
